These results are taken from patent US9890147B2 (BAYER PHARMA AKTIENGESELLSCHAFT, priority 2012, dated 2018).

The subject of one test is MOLM-13 cells. Briefly: Cell proliferation assay (alamarBlue), MOLM-13. Type of test: cell-based. As to conditions: Homo sapiens, 96 hours incubation, inhibition of cell proliferation. As to the method:
In accordance with the invention, the capability of the substances to inhibit cell proliferation was determined Cell viability was determined using the alamarBlue® reagent (Invitrogen) in a Victor X3 Multilabel Reader (Perkin Elmer). The excitation wavelength was 530 nm and the emission wavelenth […].
The MOLM-13 cells (DSMZ, ACC 554) were sown at a concentration of 4000 cells/well in 100 μl growth medium (RPMI1640, 10% FCS) on 96-well microtitre plates.
After an overnight incubation at 37° C., the fluorescence values (CI values) were determined. The plates were then treated with various substance dilutions (1E-5 M, 3E-6 M, 1E-6M, 3E-7 M, 1E-7 M, 3E-8 M, 1E-8 M) and incubated at 37° C. for 72 (MV4-11-, LOX-IMVI cells), 96 (MOLM-13-, B16F10-, MDA-MB-431-, Caov-3 cells), 120 (MOLP-8-, KMS-12-PE cells) or 168 (LAPC-4 cells) hours. The fluorescence values (CO values) were then determined. For the data analysis, the CI values were subtracted from the CO values and the results were compared between cells treated with different dilutions of the substance or with buffer solution only. These were used to calculate the IC 50 values (substance concentration required for 50% inhibition of cell proliferation).
For orientation: The colour change of resazurin is a common sign of viable cells or microbes.

For a further test, the target named is T1, BRD4 (BD1) (Homo sapiens, UniProt O60885).
T1 construct: with relatively long constructs also being possible, preferably amino acids 44-168; made in house; host or cells: E. coli
Briefly: Binding assay BRD4/acetylated peptide H4 (TR-FRET protein-protein interaction assay). In a few lines:
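His6-BRD4 BD1 (aa 67-152, E. coli), usually 10 nM, with biotinylated tetra-acetylated H4 peptide in HEPES pH 7.5 buffer; 11 compound concentrations 0.1 nM–20 μM in duplicate, 10 min preincubation, 1 h at 22 °C then ≥3 h at 4 °C. TR-FRET 665/620 ratio; IC50 by 4-parameter fit.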
On the technique in general: In TR-FRET formats the signal depends on donor and acceptor labels being close together.

For `CNC(=O)N1N=C(c2ccc(N3CCOC3=O)cc2)c2cc(OC)c(OC)cc2CC1C` (racemic) [Example 34, (±)-7,8-Dimethoxy-N,4-dimethyl-1-[4-(2-oxooxazolidin-3-yl)phenyl]-4,5-dihydro-3H-2,3-benzodiazepine-3-carboxamide], the figures for the IC50 with MOLM-13 cells and on BRD4 (BD1) were 350 nM and 50 nM, respectively.
For `CNC(=O)N1N=C(c2ccc(N3CCCCC3=O)cc2)c2cc(OC)c(OC)cc2CC1C` (racemic) [Example 35, (±)-7,8-dimethoxy-N,4-dimethyl-1-[4-(2-oxopiperidin-1-yl)phenyl]-4,5-dihydro-3H-2,3-benzodiazepine-3-carboxamide] the same measures were 1470 nM and 220 nM.
The corresponding values for `CNC(=O)N1N=C(c2ccc(N3CCN(Cc4ccccc4)CC3=O)cc2)c2cc(OC)c(OC)cc2CC1C` (racemic) [Example 36, (±)-1-[4-(4-benzyl-2-oxopiperazin-1-yl)phenyl]-7,8-dimethoxy-N,4-dimethyl-4,5-dihydro-3H-2,3-benzodiazepine-3-carboxamide] are 1160 nM and 260 nM.
For `CNC(=O)N1N=C(c2ccc(N3CCCN(C)CC3=O)cc2)c2cc(OC)c(OC)cc2CC1C` (racemic) [Example 37, (±)-7,8-dimethoxy-N,4-dimethyl-1-[4-(4-methyl-2-oxo-1,4-diazepan-1-yl)phenyl]-4,5-dihydro-3H-2,3-benzodiazepine-3-carboxamide], the IC50 (as a rule, the concentration at which inhibition is half-maximal) turned out to be 1130 nM in the test with MOLM-13 cells and 120 nM on BRD4 (BD1).
The corresponding values for `CNC(=O)N1N=C(c2ccc(N3CCCOC3=O)cc2)c2cc(OC)c(OC)cc2CC1C` (racemic) [Example 38, (±)-7,8-dimethoxy-N,4-dimethyl-1-[4-(2-oxo-1,3-oxazinan-3-yl)phenyl]-4,5-dihydro-3H-2,3-benzodiazepine-3-carboxamide] are 730 nM and 120 nM.
For the compound `CNC(=O)N1N=C(c2ccc(N3CCCC3=O)cc2)c2cc(OC)c(OC)cc2CC1C` (racemic) [Example 39, (±)-7,8-dimethoxy-N,4-dimethyl-1-[4-(2-oxopyrrolidin-1-yl)phenyl]-4,5-dihydro-3H-2,3-benzodiazepine-3-carboxamide], the IC50 in the test with MOLM-13 cells was 700 nM; on BRD4 (BD1), 80 nM.
The corresponding values for `CNC(=O)N1N=C(c2ccc(N3CCOCC3=O)cc2)c2cc(OC)c(OC)cc2CC1C` (racemic) [Example 40, (±)-7,8-dimethoxy-N,4-dimethyl-1-[4-(3-oxomorpholin-4-yl)phenyl]-4,5-dihydro-3H-2,3-benzodiazepine-3-carboxamide] are 1470 nM and 280 nM.
As for `CNC(=O)N1N=C(c2ccc(N3CC(C)OCC3=O)cc2)c2cc(OC)c(OC)cc2CC1C` (racemic) [Example 41, (±)-7,8-dimethoxy-N,4-dimethyl-1-[4-(2-methyl-5-oxomorpholin-4-yl)phenyl]-4,5-dihydro-3H-2,3-benzodiazepine-3-carboxamide], the results for the IC50 in the test with MOLM-13 cells and on BRD4 (BD1) were 1350 nM and 260 nM, respectively.
For `CNC(=O)N1N=C(c2ccc(N3CCOC(C)C3=O)cc2)c2cc(OC)c(OC)cc2CC1C` (racemic) [Example 42, (±)-7,8-dimethoxy-N,4-dimethyl-1-[4-(2-methyl-3-oxomorpholin-4-yl)phenyl]-4,5-dihydro-3H-2,3-benzodiazepine-3-carboxamide] the same measures were 1290 nM and 200 nM.
The corresponding values for `CNC(=O)N1N=C(c2ccc(N3CCN(C)CC3=O)cc2)c2cc(OC)c(OC)cc2CC1C` (racemic) [Example 43, (±)-7,8-dimethoxy-N,4-dimethyl-1-[4-(4-methyl-2-oxopiperazin-1-yl)phenyl]-4,5-dihydro-3H-2,3-benzodiazepine-3-carboxamide] are 840 nM and 300 nM.
The corresponding values for `CNC(=O)N1N=C(c2ccc(N3CCNCC3=O)cc2)c2cc(OC)c(OC)cc2CC1C` (racemic) [Example 44, (±)-7,8-Dimethoxy-N,4-dimethyl-1-[4-(2-oxopiperazin-1-yl)phenyl]-4,5-dihydro-3H-2,3-benzodiazepine-3-carboxamide] are 210 nM and 50 nM.
On to `CNC(=O)N1N=C(c2ccc(-c3cnc(C)n3C)cc2)c2cc(OC)c(OC)cc2CC1C` (racemic) [Example 47, (±)-1-[4-(1,2-dimethyl-1H-imidazol-5-yl)phenyl]-7,8-dimethoxy-N-dimethyl-4,5-dihydro-3H-2,3-benzodiazepine-3-carboxamide], for which the IC50 in the test on MOLM-13 cells came out at 530 nM; on BRD4 (BD1) it was 110 nM.
The corresponding values for `CNC(=O)N1N=C(c2ccc(-c3ccc(O)nc3)cc2)c2cc(OC)c(OC)cc2CC1C` (racemic) [Example 49, (±)-1-[4-(6-hydroxypyridin-3-yl)phenyl]-7,8-dimethoxy-N,4-dimethyl-4,5-dihydro-3H-2,3-benzodiazepine-3-carboxamide] are 420 nM and 40 nM.
The corresponding values for `CNC(=O)N1N=C(c2ccc(-c3ccc(C(F)(F)F)nc3)cc2)c2cc(OC)c(OC)cc2CC1C` (racemic) [Example 50, (±)-7,8-dimethoxy-N,4-dimethyl-1-{4-[6-(trifluoromethyl)pyridin-3-yl]phenyl}-4,5-dihydro-3H-2,3-benzodiazepine-3-carboxamide] are 560 nM and 150 nM.
As for `CNC(=O)N1N=C(c2cccc(-c3c(C)nn(C)c3C)c2)c2cc(OC)c(OC)cc2CC1C` (racemic) [Example 53, (±)-7,8-dimethoxy-N,4-dimethyl-1-[3-(1,3,5-trimethyl-1H-pyrazol-4-yl)phenyl]-4,5-dihydro-3H-2,3-benzodiazepine-3-carboxamide], the IC50 in the test on MOLM-13 cells is 350 nM; at BRD4 (BD1) it was 40 nM.
The corresponding values for `CNC(=O)N1N=C(c2cccc(-c3cnn(C)c3)c2)c2cc(OC)c(OC)cc2CC1C` (racemic) [Example 54, (±)-7,8-dimethoxy-N,4-dimethyl-1-[3-(1-methyl-1H-pyrazol-4-yl)phenyl]-4,5-dihydro-3H-2,3-benzodiazepine-3-carboxamide] are 440 nM and 50 nM.
For `CNC(=O)N1N=C(c2cccc(-c3ccnn3C)c2)c2cc(OC)c(OC)cc2CC1C` (racemic) [Example 55, (±)-7,8-dimethoxy-N,4-dimethyl-1-[3-(1-methyl-1H-pyrazol-5-yl)phenyl]-4,5-dihydro-3H-2,3-benzodiazepine-3-carboxamide] the same measures were 900 nM and 120 nM.
The corresponding values for `CNC(=O)N1N=C(c2ccc(F)c(-c3c(C)nn(C)c3C)c2)c2cc(OC)c(OC)cc2CC1C` (racemic) [Example 56, (±)-1-[4-fluoro-3-(1,3,5-trimethyl-1H-pyrazol-4-yl)phenyl]-7,8-dimethoxy-N,4-dimethyl-4,5-dihydro-3H-2,3-benzodiazepine-3-carboxamide] are 900 nM and 180 nM.
Turning to `CNC(=O)N1N=C(c2ccc(F)c(-c3cnn(C)c3)c2)c2cc(OC)c(OC)cc2CC1C` (racemic) [Example 57, (±)-1-[4-fluoro-3-(1-methyl-1H-pyrazol-4-yl)phenyl]-7,8-dimethoxy-N,4-dimethyl-4,5-dihydro-3H-2,3-benzodiazepine-3-carboxamide], the IC50 in the test on MOLM-13 cells turned out to be 790 nM; on BRD4 (BD1) it was 90 nM.
For `CNC(=O)N1N=C(c2ccc(F)c(-c3c(C)noc3C)c2)c2cc(OC)c(OC)cc2CC1C` (racemic) [Example 58, (±)-1-[3-(3,5-dimethylisoxazol-4-yl)-4-fluoroophenyl]-7,8-dimethoxy-N,4-dimethyl-4,5-dihydro-3H-2,3-benzodiazepine-3-carboxamide] the same measures were 990 nM and 250 nM.
For `CNC(=O)N1N=C(c2ccc(-c3cccc([N+](=O)[O-])c3)cc2)c2cc(OC)c(OC)cc2CC1C` (racemic) [Example 59, (±)-7,8-dimethoxy-N,4-dimethyl-1-(3′-nitrobiphenyl-4-yl)-4,5-dihydro-3H-2,3-benzodiazepine-3-carboxamide] the same measures were 620 nM and 70 nM.
The corresponding values for `CNC(=O)N1N=C(c2ccc(-c3ccccc3)cc2)c2cc(OC)c(OC)cc2CC1C` (racemic) [Example 60, (±)-1-(biphenyl-4-yl)-7,8-dimethoxy-N,4-dimethyl-4,5-dihydro-3H-2,3-benzodiazepine-3-carboxamide] are 480 nM and 80 nM.
With `CNC(=O)N1N=C(c2ccc(-c3ccc(Cl)cc3Cl)cc2)c2cc(OC)c(OC)cc2CC1C` (racemic) [Example 61, (±)-1-(2′,4′-dichlorobiphenyl-4-yl)-7,8-dimethoxy-N,4-dimethyl-4,5-dihydro-3H-2,3-benzodiazepine-3-carboxamide], the IC50 stood at 2110 nM in the test on MOLM-13 cells and 570 nM at BRD4 (BD1).
The corresponding values for `CNC(=O)N1N=C(c2ccc(-c3ccc(F)cc3)cc2)c2cc(OC)c(OC)cc2CC1C` (racemic) [Example 62, (±)-1-(4′-fluorobiphenyl-4-yl)-7,8-dimethoxy-N,4-dimethyl-4,5-dihydro-3H-2,3-benzodiazepine-3-carboxamide] are 650 nM and 60 nM.
